Measurements as given in patent US20210023223A1, “HYDROCARBON / LIPID - CAROTENOID COMPLEXES” (IP SCIENCE LIMITED, priority 2018, published 2021).

What was measured:
[1] = test system: moderately obese volunteers; assay: Lipoprotein O2 by catalymetry; type: in vivo, human
Protocol: (§1) Study Design. The total number of volunteers recruited to take part in the study was 18 (9 male and 9 female subjects) Caucasians 40-67 years old.
(§2) Products Formulated with Lycopene was developed and made by Lycotec Ltd. (Cambridge, United Kingdom). The daily dose was 1 capsule of 20 mg of lycopene, and it was taken with the main meal of the day. The period of administration was 1 month.
LDL-Px and Lipoprotein O2. Activity of serum LDL peroxidase proteins, which include IgG with superoxide dismutase activity, was measured as described previously. Plasma oxygen, which carried by blood lipids/lipoproteins was measured by catalymetry.

[2] = test system: moderately obese volunteers; assay: Tissue oxygenation StO2 by NIRS, 20 mg lycopene study; type: in vivo, human
Protocol: as §1, §2
Thenar eminence and forearm muscles of the patients were used as a tissue target for the assessment of oxygen saturation, StO2, or combined level of oxygenated haemoglobin and myoglobin. StO2 was assessed by continuous wavelength near-infrared spectroscopy, NIRS, with wide-gap second-derivative (In Spectra, Hutchinson Technology, MN, USA). The measurements were taken at different time points.
The recording was initiated after 15 min of rest in a supine position before occlusion of the brachial artery. It was then continued during stagnant ischemia induced by rapidly inflating the cuff to 50 mm Hg above systolic BP. The ischemia lasted for 3 min, and the recording period lasted for another 5 min after that until StO2 was stabilized. The area under the hyperaemic curve, AUC, of the recorded signal for the settling time in the post-occlusion period was then calculated as described earlier in % O2/minute.

Melting time at 37° C. = type: physicochemical
Protocol: Approximately 20 mg of butter, or pork fat, or beef fat, or cocoa butter, or chocolate, with or without certain concentrations of carotenoids, were placed on the surface of the laboratory slides and incubated at 37° C. in a laboratory incubator (TLK39).

[3] = Size of pork fat globules, microscopy; type: physicochemical; details: maximum doses
Protocol: (§3) For measurement of lipid droplets and fat globules and quantification of their size binocular microscope Olympus BX41 was used with Cell^B software for morphometric analysis. All parameters were collected from 10 randomly selected microscopic fields at ×1000).
When carotenoids were added to animal fat, with a relatively high percentage of saturated fatty acid, a similar trend in increased fat globules was observed, although to a lesser degree. The maximum doses of lycopene or astaxanthin caused a similar increase in the pork fat globules diameter, only 50%, FIG. 2 and table 3.

[4] = Oil volume needed to cover water surface; type: physicochemical; details: vs unmodified olive oil
Source text: The other way to assess changes in oil viscosity, caused by carotenoids, would be to measure how much oil would be needed to cover a water surface of the same size. The lower viscosity of the oil the more spreadable it will be, and consequently less of it would be needed to cover this surface. Therefore, by measuring how much oil would be required to cover a certain surface of water we can asses how deep changes in the lipid folding were made by incorporating carotenoids.
An additional nine heating experiments were carried out when either pure Napolina olive oil, Napolina olive oil containing Astaxanthin (7 mg/ml), or Napolina olive oil containing Lycopene (7 mg/ml) was carefully poured over the surface of the water in order to prevent evaporation. The amount of oil required to completely cover the surface of the 100 ml water sample in the cup (diameter—7.4 cm) was measured (15 ml Falcon laboratory tubes and 1 ml Pipetman pitettes were used) and recorded for each oil type. The thickness of the resulting oil film (necessary to completely cover water surface) was then calculated. Temperature change curves were compared for uncovered water and water samples overlayed with three varieties of oil at heating temperatures of 200° C., 250° C. and 300° C. Water samples overlaid with oils were heated until water reached boiling point (usually at 99° C.). […]

[5] = Size of Olive oil lipid droplets, microscopy; type: physicochemical; parameters: Olive oil lipid droplets, Droplet square: unit not given here
Protocol: as §3
When lycopene was added to olive oil, rich with monounsaturated fatty acids, it increased the size of its lipid droplets in a dose-dependent manner, and table 4.

[6] = Size of Canola oil lipid droplets, microscopy; type: physicochemical
Source text: as §3
The effect of adding lycopene into another polyunsaturated oil, in this case cod liver oil, was a dose-dependent increase in the size of its lipid structures. For Olive and Sunflower oils this increase in diameter caused by lycopene could reach 20 fold, for Canola and Cod Liver oil it was 50 or 100 fold.

[7] = test system: moderately obese volunteers; assay: Serum lipids after 20 mg lycopene for 1 month; type: in vivo, human
Protocol: as §1, §2
Blood was collected by phlebotomy in the morning, in the hospital, from the arm veins of patients following night fast. The serum was separated from the rest of the clotted mass by centrifugation; aliquots were then stored in code-labelled tubes for blinded analysis and stored at −80° C. until use.

[8] = Size of Sunflower Oil lipid droplets, microscopy; type: physicochemical; parameters: Size of Sunflower Oil lipid droplets, Mean / Sunflower Oil lipid droplets, Droplet square: unit not given here
Source text: as §3

[9] = after 20 mg lycopene daily for one month
[10] = lycopene dose 0.1 per 30 g of Olive oil
[11] = lycopene dose 0.5 per 30 g of Olive oil
[12] = lycopene dose 1.0 per 30 g of Olive oil
[13] = lycopene dose 2.0 per 30 g of Olive oil
[14] = lycopene dose 3.5 per 30 g of Olive oil
[15] = lycopene dose 7.0 per 30 g of Olive oil
[16] = lycopene dose 10.0 per 30 g of Olive oil
[17] = lycopene dose 0.1 per 30 g of the oil
[18] = lycopene dose 0.5 per 30 g of the oil
[19] = lycopene dose 1.0 per 30 g of the oil
[20] = lycopene dose 2.0 per 30 g of the oil
[21] = lycopene dose 3.5 per 30 g of the oil
[22] = lycopene dose 7.0 per 30 g of the oil
[23] = lycopene dose 10.0 per 30 g of the oil

CC(C)=CCC/C(C)=C/C=C/C(C)=C/C=C/C(C)=C/C=C/C=C(C)/C=C/C=C(C)/C=C/C=C(\C)CCC=C(C)C [Lycopene]
Lipoprotein O2 [1, 9]: 3.44 ± 0.27 µM | Lipoprotein O2 ([1]; before, n = 18): 2.94 ± 0.25 µM | StO2 [2, 9]: 80.4 ± 5.3^ AUC mm | StO2 ([2]; before, n = 18): 64.1 ± 4.9^ AUC mm | Reduction of melting time of cocoa butter (Melting time at 37° C.; 0.3 mg per 1 g): more than 8 fold | Reduction of melting time of white chocolate (Melting time at 37° C.; 0.3 mg per 1 g of the chocolate): under 3 fold | Melting time of white chocolate (Melting time at 37° C.; 0.3 mg per 1 g of the chocolate, control 11 minutes): 4 min | Melting time of cocoa butter (Melting time at 37° C.; 0.3 mg per 1 g, control 16.5 minutes): 2 min | Increase in the pork fat globules diameter [3]: 50% | Reduction of oil required to cover the same water area [4]: ~60% | Olive oil lipid droplets, Droplet square [5, 10]: 27.2 | Size of Olive oil lipid droplets, Mean [5, 10]: 46.24 μm | Olive oil lipid droplets, Droplet square [5, 11]: 36.36 | Size of Olive oil lipid droplets, Mean [5, 11]: 40.00 μm | Olive oil lipid droplets, Droplet square [5, 12]: 10.29 | Size of Olive oil lipid droplets, Mean [5, 12]: 185.13 μm | Olive oil lipid droplets, Droplet square [5, 13]: 17.39 | Size of Olive oil lipid droplets, Mean [5, 13]: 260.80 μm | Olive oil lipid droplets, Droplet square [5, 14]: 24.05 | Size of Olive oil lipid droplets, Mean [5, 14]: 457.00 μm | Olive oil lipid droplets, Droplet square [5, 15]: 61.31 | Size of Olive oil lipid droplets, Mean [5, 15]: 490.50 μm | Olive oil lipid droplets, Droplet square [5, 16]: 36.77 | Size of Olive oil lipid droplets, Mean [5, 16]: 367.70 μm | Increase in lipid droplet diameter, could reach ([5]; olive oil): 20 fold | Increase in lipid droplet diameter [6]: 50 fold | HDL [7, 9]: 49.9 ± 3.0^ mg/dL | LDL [7, 9]: 121 ± 10.5 mg/dL | Triglycerides [7, 9]: 128 ± 9.7 mg/dL | HDL ([7]; before, n = 18): 49.2 ± 2.9^ mg/dL | LDL ([7]; before, n = 18): 134 ± 11.3 mg/dL | Triglycerides ([7]; before, n = 18): 136 ± 10.1 mg/dL | Size of Sunflower Oil lipid droplets, Mean [8, 17]: 65.16 | Sunflower Oil lipid droplets, Droplet square [8, 17]: 0.36 | Size of Sunflower Oil lipid droplets, Mean [8, 18]: 144.82 | Sunflower Oil lipid droplets, Droplet square [8, 18]: 1.20 | Size of Sunflower Oil lipid droplets, Mean [8, 19]: 79.73 | Sunflower Oil lipid droplets, Droplet square [8, 19]: 0.72 | Size of Sunflower Oil lipid droplets, Mean [8, 20]: 149.25 | Sunflower Oil lipid droplets, Droplet square [8, 20]: 1.32 | Size of Sunflower Oil lipid droplets, Mean [8, 21]: 286.00 | Sunflower Oil lipid droplets, Droplet square [8, 21]: 4.03 | Size of Sunflower Oil lipid droplets, Mean [8, 22]: 202.78 | Sunflower Oil lipid droplets, Droplet square [8, 22]: 3.44 | Size of Sunflower Oil lipid droplets, Mean [8, 23]: 434.81 | Sunflower Oil lipid droplets, Droplet square [8, 23]: 20.71 | Increase in lipid droplet diameter, could reach ([8]; sunflower oil): 20 fold
